This is an account of results in patent US8981094B2, “Piperidine/piperazine derivatives” (Janssen Pharmaceutica N.V., priority 2007, dated 2015).

Usually pIC50 stands for the negative decadic logarithm of the IC50, by convention in mol/L. The low end stands for a large IC50, the high end for a small IC50.

pIC50: −log10 of the molar value.

This assay has as its target T1, human DGAT1 (Homo sapiens, UniProt O75907).
T1 construct: FLAG (N); made in house; host or cells: SF9 insect cells (pFastBac baculovirus); total cell membranes
T1 sequence (O75907 1-488): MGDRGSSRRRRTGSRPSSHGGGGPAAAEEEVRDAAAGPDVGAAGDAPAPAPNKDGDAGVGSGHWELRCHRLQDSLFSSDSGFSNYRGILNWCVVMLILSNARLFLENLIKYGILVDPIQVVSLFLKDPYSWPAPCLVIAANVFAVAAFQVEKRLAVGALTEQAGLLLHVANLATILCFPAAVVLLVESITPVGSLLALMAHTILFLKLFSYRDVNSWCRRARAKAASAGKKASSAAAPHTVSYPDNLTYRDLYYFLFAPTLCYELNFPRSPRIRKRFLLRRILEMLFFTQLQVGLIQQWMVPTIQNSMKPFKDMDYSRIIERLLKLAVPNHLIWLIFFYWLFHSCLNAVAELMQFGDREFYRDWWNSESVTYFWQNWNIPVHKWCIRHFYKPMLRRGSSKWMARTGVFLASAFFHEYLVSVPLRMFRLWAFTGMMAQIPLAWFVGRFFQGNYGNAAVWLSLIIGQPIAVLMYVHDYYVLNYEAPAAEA
As to the kind of experiment: Inhibition of DGAT1 activity, FlashPlate assay with DGAT1 membrane preparations and substrate micelles. It is filed as biochemical. The following applies: pIC50 = -logIC50, IC50 values expressed in M. Summed up: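 FLAG-tagged human DGAT1 membranes (expressed in Sf9 cells) were incubated 120 min at 37° C. in 50 mM Tris-HCl pH 7.4 with 150 mM MgCl2, 1 mM EDTA, 0.2% BSA, 50 μM DAG micelles (PC/PS) and 8.4 μM [^3H]-oleoylCoA. The reaction was stopped with N-ethylmaleimide and read as FlashPlate radioluminescence. Responses were normalized to enzyme/no-enzyme controls to fit dose-response curves.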
The molecule `CC(C)(C)OC(=O)NC1(C(=O)Nc2ccc(C3CCN(C(=O)Nc4c(Cl)cccc4Cl)CC3)cc2)CCCC1` [Compound 216] had a pIC50 of 7.46.

`C#CCC(NC(=O)OC(C)(C)C)C(=O)Nc1ccc(C2CCN(C(=O)Nc3c(Cl)cccc3Cl)CC2)cc1` (stereo not shown) [Compound 220]: the pIC50 was 7.72.

For `O=C(NCc1cccc(N2CCCC2)c1)c1ccc(N2CCN(C(=O)Nc3c(Cl)cc(CN4CCCC4)cc3Cl)CC2)cc1` [Compound 224], the pIC50 was 8.08.

As for `O=C(NCc1cccc(N2CCCC2)c1)c1ccc(N2CCN(C(=O)Nc3c(Cl)cc(CCN4CCCC4)cc3Cl)CC2)cc1` [Compound 227], the pIC50 is 7.93.

The molecule `O=C(NCc1ccc2c(c1)OCO2)c1ccc(N2CCN(C(=O)Cc3c(Cl)cccc3Cl)CC2)cc1` [Compound 235] showed a pIC50 of 7.27.

Consider `O=C(NCC12CC3CC(CC(C3)C1)C2)c1ccc(N2CCN(C(=O)Nc3c(Cl)cc(CN4CCCC4)cc3Cl)CC2)cc1` [Compound 243], for which the pIC50 is 6.89.

On to `COc1ccc(CNC(=O)c2ccc(N3CCN(C(=O)Nc4c(Cl)cncc4Cl)CC3)cc2)cc1` [Compound 245], for which the pIC50 is 6.84.

The molecule `O=C(NCc1cccc(F)c1)c1ccc(N2CCN(C(=O)Cc3c(Cl)cccc3Cl)CC2)cc1` [Compound 247] gave a pIC50 of 6.81.

Molecule `O=C(NCc1ccccc1F)c1ccc(N2CCN(C(=O)Cc3c(Cl)cccc3Cl)CC2)cc1` [Compound 249] gave a negative logarithm of the IC50 (pIC50) of 6.79.

The molecule `CC(NC(=O)c1ccc(N2CCN(C(=O)Cc3c(Cl)cccc3Cl)CC2)cc1)c1ccc(F)cc1` (stereo not shown) [Compound 250] showed a pIC50 of 6.76.

For `O=C(NCc1cc(F)cc(F)c1)c1ccc(N2CCN(C(=O)Cc3c(Cl)cccc3Cl)CC2)cc1` [Compound 252], the pIC50 is 6.63.

`O=C(NCc1cccc(N2CCCC2)c1)c1ccc(N2CCN(C(=O)Cc3c(Cl)cc(CN4CCCC4)cc3Cl)CC2)cc1` [Compound 267] had a pIC50 of 6.97.

`O=C(CCCc1ccccc1)Nc1ccc(N2CCN(C(=O)Nc3c(Cl)cc(CN4CCOCC4)cc3Cl)CC2)cc1` [Compound 269] showed a pIC50 of 8.69.

The molecule `COCCNC(C)c1cc(Cl)c(NC(=O)N2CCN(c3ccc(NC(=O)CCCc4ccccc4)cc3)CC2)c(Cl)c1` (stereo not shown) [Compound 274] had a pIC50 of 8.40.

`COCCN1CCN(C(=O)c2cc(Cl)c(NC(=O)N3CCN(c4ccc(NC(=O)CCCc5ccccc5)cc4)CC3)c(Cl)c2)CC1` [Compound 275] showed a negative logarithm of the IC50 (pIC50) of 8.38.

In turn, `O=C(CC(=O)OCc1ccccc1)Nc1ccc(N2CCN(C(=O)Nc3c(Cl)cccc3Cl)CC2)cc1` [Compound 277] gave a pIC50 of 8.34.

In the case of `CC(C)(C)OC(=O)CCC(=O)Nc1ccc(N2CCN(C(=O)Nc3c(Cl)cccc3Cl)CC2)cc1` [Compound 279], the pIC50 is 8.17.

With `CC(C)(C)OC(=O)CC(=O)Nc1ccc(N2CCN(C(=O)Nc3c(Cl)cccc3Cl)CC2)cc1` [Compound 282], the pIC50 is 8.11.

The molecule `CN(C)C(=O)c1cc(Cl)c(NC(=O)N2CCN(c3ccc(NC(=O)CCCc4ccccc4)cc3)CC2)c(Cl)c1` [Compound 284] showed a pIC50 of 8.09.

As for `CN1CCN(C(=O)c2cc(Cl)c(NC(=O)N3CCN(c4ccc(NC(=O)CCCc5ccccc5)cc4)CC3)c(Cl)c2)CC1` [Compound 290], the pIC50 is 7.98.

As to `COCCN(C)C(=O)c1cc(Cl)c(NC(=O)N2CCN(c3ccc(NC(=O)CCCc4ccccc4)cc3)CC2)c(Cl)c1` [Compound 291], the pIC50 was 7.98.

In turn, `O=C(CCCc1ccccc1)Nc1ccc(N2CCN(C(=O)Nc3c(Cl)cc(C(=O)N4CCOCC4)cc3Cl)CC2)cc1` [Compound 294] showed a pIC50 of 7.91.

In turn, `O=C(CCCc1ccccc1)Nc1ccc(N2CCN(C(=O)C(O)c3ccccc3Br)CC2)cc1` (stereo not shown) [Compound 295] gave a pIC50 of 7.86.

In the case of `CN(C)C(=O)CN(C)C(=O)c1cc(Cl)c(NC(=O)N2CCN(c3ccc(NC(=O)CCCc4ccccc4)cc3)CC2)c(Cl)c1` [Compound 296], the pIC50 was 7.83.

The molecule `CCOC(=O)CCCC(=O)Nc1ccc(N2CCN(C(=O)Nc3c(Cl)cccc3Cl)CC2)cc1` [Compound 297] showed a pIC50 of 7.82.
